Source: patent US12414948B2, “Methods” (INTRA-CELLULAR THERAPIES, INC., priority 2022, dated 2025)

Assays:
[1] = tested on: hippocampal mRNA (Il1b, Il6, Tnfa, Il10, Cldn5); test: Hippocampal mRNA (qRT-PCR) after acute restraint stress; assay type: in vivo, mouse; settings: mice, 2 h restraint stress, Luma 3 mg/kg IP
Procedure: Quantitative Real-Time PCR. Mouse hippocampal tissue is homogenized with glass beads in 1 mL of TRIzol reagent using a BeadBeater (Biospec Products, Bartlesville, OK). Heavy phase-lock gel tubes enabled separation of phases following the addition of 400 μL chloroform to the sample and centrifugation at 12,000 rpm for 10 minutes at room temperature. RNA is extracted using Qiagen Rneasy kit (Qiagen, Hilden, Germany). For cDNA synthesis, 2 μg of total RNA is used (SuperScript IV Reverse Transcriptase; ThermoFisher Scientific, Waltham, MA). The purity and concentration of RNA is measured with a Nanodrop spectrophotometer; the optical density (OD) 260/280 and OD 260/230 are within 1.8-2.3. In the hippocampus, 4 key markers of pro- and anti-inflammatory cytokines and chemokines (Il1b: ID Mm00434228_m1, Tnfa: ID Mm00443258_m1, 116: ID Mm00446190_m1, and I110: ID Mm01288386_m1; ThermoFisher Scientific) are initially chosen for analysis (n=5-12 per group). In subsequent experiments, the transcripts for other markers of inflammation are chosen for analysis including Icam1 (ID Mm00516023_m1; a cell adhesion molecule involved in immune cell migration), Cldn5 (ID Mm00727012_s1; a tight junctions protein), colony stimulating factor 1 (Csf1: ID Mm00432686_m1; a factor that regulates microglia function) and its receptor Csf1r (ID Mm01266652_m1), and the nucleotide binding and oligomerization domain-like receptor family pyrin domain-containing 3 inflammasome complex (Nlrp3: Mm00840904_m1). Gapdh (ID Mm99999915_g1) is chosen as a housekeeping gene. […] All mRNAs are measured by qRT-PCR on ABI Prism 7900HT system using TaqMan Gene Expression Assays. […]
Using similar procedures as described above, serum corticosterone levels and hippocampal Cldn5 mRNA expression are measured as well (corticosterone is measured using a commercial ELISA kit).

Sprague-Dawley rats = test: Reward sniffing test (female urine sniffing test, FUST), LPS-induced anhedonia; assay type: in vivo, rat; settings: rats given LPS 1 mg/kg SC, label LPS = LPS + Vehicle, label Luma = Luma 1 mg/kg IP 24 h before and 24 h after LPS
Procedure: All other reagents are obtained in the highest purity available from Sigma-Aldrich (St. Louis, MO) unless otherwise noted. […] Some rodents are given a cotreatment with a subcutaneous (SC) injection of lipopolysaccharide (LPS, 500 μg/kg; Sigma-Aldrich, ref #0127:B8) diluted in 0.9% injectable saline while control group animals receive injections of all vehicles matching the experimental conditions. […] On day 2, either no injection for naïve rats, or saline or LPS is injected (1 mg/kg, SC).
Behavioral Evaluation. All behavioral tests are performed in the morning with adult male Sprague-Dawley rats (n=9-11 per group for the experiments with LPS, and n=13-14 per group for the naïve rats).
Reward Sniffing Test (also known also as female urine sniffing test (FUST)): In this anhedonia-based assay, rats are brought to a well-ventilated testing room under dim lighting. A sterile cotton-tipped applicator is attached to one wall in the home cage for 1 hour to habituate rats to this new object. For the 2 phases of the 5 minute test, rats are first exposed to a new cotton tip dipped in sterile water as a control that is removed at the end of the 5 minutes; 45 minutes later, another cotton tip previously dipped into fresh rat urine collected from females of the same strain is attached to the cage wall. Male behavior is video recorded and latency to first sniff of the cotton tip and total time spent sniffing the cotton-tipped applicator are determined.
In a pilot study, a dose response curve is conducted with varying doses of LPS to select an optimal dose for inducing an anhedonic response in rats. Based on these studies, a SC dose of 1 mg/kg LPS is selected. […] This is followed 24 hours later by an injection of LPS (1 mg/kg; SC). […] Control rats are administered saline instead of LPS and vehicle instead of lumateperone. Anhedonia is assessed using FUST (female urine sniffing test) and measuring latency to sniff the reward combined with time spent sniffing the reward. Latency sniffing water is used as a control. […]

[2] = relative change normalized to control (Dct method)

Compound	Hippocampal mRNA expression Cldn5 ([1]; normalized to control)	Hippocampal cytokine mRNA expression IL-1b [1, 2]	Hippocampal cytokine mRNA expression IL-6 [1, 2]	FUST Latency sniffing water (Sprague-Dawley rats; control test)	FUST Latency sniffing reward (Sprague-Dawley rats)	FUST Time sniffing reward (Sprague-Dawley rats)
CN1CCN2c3c(cccc31)[C@@H]1CN(CCCC(=O)c3ccc(F)cc3)CC[C@@H]12 [Luma, lumateperone]	0.330	0.39	−0.051	–	–	–
lipopolysaccharide [LPS, reference compound]	–	–	–	274.27 s	164.2 s	11.11 s
